Columns and labels:
Assay type in all cases: cell-based
[1] = tested on: Bacillus stearothermophilus var. calidolactis spores C953; test: Test type C: microtiterplates with agar medium containing trimethoprim, milk sample
Description: For the preparation of the test plates (test type C) the procedure described in Example I was followed except that the nutrients described in Example III (dextrose, tryptose and yeast extract) were not added separately but were added to the initial agar medium in the same concentration as described in Example I. Also together with the buffer solution an amount of trimethoprim solution was added to give a final concentration of 60 μg per litre. To the wells of sterile microtiterplates 20 μl of the agar solution was added under asceptic conditions. The plates were immediately sealed with aluminium foil. The plates were stored at a temperature between 5° C. and 15° C. An amount of penicillin G of 3 ppb was added to fresh cow's milk. […] The control sample contained no penicillin G or sulphadiazine. The microtiterplates were opened by removing the seal. Then 20 μl of each of the three milk samples was added to each of the test plates (duplo) containing different concentrations of Bacillus stearothermophilus var. calidolactis spores […]. The plates were immediately placed in a waterbath kept at 64° C. Observations were made after 30 minutes to 150 minutes. The time at which the colour of the agar medium became yellow was determined. As is shown in table 2, the test duration correlated with the amount of spores added to the agar medium without influencing the sensitivity of the test in a negative way.

[2] = tested on: Bacillus stearothermophilus var. calidolactis C953 spores; test: Test type B: agar test tubes with Brilliant Black and Toluidine Blue, milk sample
Description: Test tubes of type B contained an agar medium prepared as follows: A solution was made of 10 g agar, 9 g sodium chloride, 2 g glucose, 2 g peptone, 2 g tryptone, 4 g yeast extract and 50 ml of a 0.1 M triethanolamine buffer solution (pH=8.0) in 1000 ml distilled water. The final solution was sterilized for 20 minutes at 121° C. and cooled to about 60° C. An amount of a solution of Brilliant Black to give a final concentration of 80 mg per 1000 ml and an amount of a solution of Toluidine Blue to give a final concentration of 3 mg per 1000 ml were also added. To this solution different amounts of a suspension of Bacillus stearothermophilus var. caildolactis C953 spores In distilled water were added to give final concentrations between 10^8 and 10^10 spores per ml. Sterile tubes with a diameter of about 9 mm were filled with 0.3 ml of the agar solution under aseptic conditions and Immediately sealed e.g. with an aluminum foil. The agar solution In the test tubes was allowed to solidity in the test tubes while the test tubes were held in an upright position. The tubes were stored at a temperature between 5° C. and 15° C. An amount of penicillin G of 0.003 I.U. per ml was added to fresh cow's milk. The control sample contained no penicillin G. Two of each of the test tubes of type B with concentrations of Bacillus stearothermophilus var. calidolactis spores as described in Example II were opened by removing the seal. Then 0.1 ml of each of the two milk samples was added to each of the test tubes and the test tubes were immediately placed in a waterbath kept at 64° C. Observations were made after 30 minutes to 3 hours. The time at which the colour of the agar medium became yellow was determined. As is shown in Table 1, the test duration correlated with the amount of spores added to the agar medium without influencing the sensitivity of the test in a negative way.

[3] = tested on: Bacillus stearothermophilus var. calidolactis C953 spores; test: Test type A: agar test tubes with bromocresolpurple and nutrient tablet, milk sample; conditions: fresh cow's milk, 64° C.
Description: Test tubes of type A contained an agar medium prepared as follows: A solution was made of 12 g agar, 9 g sodium chloride and 50 ml of a 0.1 M triethanolamine buffer solution (pH=8.0) in 1000 ml distilled water. An amount of a solution of bromocresolpurple to give a final concentration of 20 mg per 1000 ml was also added. The final solution was sterilized for 20 minutes at 121° C. and cooled to about 60° C. To this solution different amounts of a suspension of Bacillus stearothermophilus var. calidolactis […] spores in distilled water were added to give final concentrations between 10^5 and 10^10 spores per ml. Sterile tubes with a diameter of about 9 mm were filled with 0.3 ml of the agar solution under aseptic conditions and immediately sealed, e.g. with aluminium foil. The agar solution in the test tubes was allowed to solidify in the test tubes while the test tubes were held in an upright position. The tubes were stored at a temperature between 5° C. and 15° C. A mixture was made of 100 g dextrose, 160 g Avicel PH101, 50 g tryptose, 14 g yeast extract and 15 g precirol. This mixture was sufficient to prepare about 18000 tablets with a diameter of approximately 3 mm and a thickness of approximately 1.9 mm. […] The time at which the colour of the agar medium became yellow was determined. […]

[4] = tested on: Streptococcus thermophilus T101 (DSM 4022); test: Test type D: detection of antibiotics in milk without agar, bromocresolpurple; conditions: test duration of 80 minutes
Description: In this experiment Streptococcus thermophilus […] (DSM 4022) was sed for the determination of antibiotics in milk. Streptococcus thermophilus […] was grown using methods known per se. An amount of a solution of bromocresolpurple to give a final concentration of […] was added to fresh cow's milk. To part of the fresh cow's milk also an amount of penicillin G of 4 ppb added. The control sample contained no penicillin G. To the milk samples different amounts of Streptococcus thermophilus […] were added to give final concentrations between 10^7 and 10^9 CFU per ml. Immediately after preparation of the samples sterile tubes with a diameter of about 9 mm were filled with 0.3 ml of each milk sample (duplo). The tubes were immediately placed in a waterbath kept at 42° C. Observations were made after 30 minutes to 2 hours and 30 minutes. The time at which the colour of the agar medium became yellow was determined. As is shown in table 3, the test duration correlated with the amount of cells added to the milk without influencing the sensitivity of the test in a negative way.

## Nc1ccc(S(=O)(=O)Nc2ncccn2)cc1 [sulphadiazine]
[1]; test duration of 90 minutes
  concentration that can be detected: 100 ppb

## CC1(C)S[C@@H]2[C@H](NC(=O)Cc3ccccc3)C(=O)N2[C@H]1C(=O)O [penicillin G]
[2]; as little as 70 minutes, test organism more than 10^7 CFU per ml
  concentration detected in a milk sample: 0.003 IU/ml
[2]; test type B, test duration of 70 minutes, milk
  concentration that can be detected: 0.003 I.U. per ml
[2]; test unit of 0.3 ml agar solution in upright test tube of internal diameter 9 mm
  concentration detected in a milk sample: 0.003 lU/ml
[3]
  detectable amount of antibacterial compound (agar medium blue): ≥ 0.003 I.U. per ml
[1]; test duration of 80 minutes
  concentration that can be detected: 3 ppb
[1]; test duration of 90 minutes
  concentration that can be detected: 3 ppb
[4]
  concentration that can be detected: ≥ 4 ppb
